“Also recorded” adds a separate entry of the source. Read-outs that look alike come from different tables or passages of the source.
Tests used:
[1] = esterase activity absent in human plasma; cited from earlier work
[2] = by an esterase; cited from earlier work
human cells = settings: cited from earlier work
[3] = test system: rat cerebrospinal fluid (CSF); settings: Shikama et al. 1995, cited from earlier work; for rate of uptake into rat cerebrospinal fluid: GSH versus GSH isopropyl ester
[4] = test system: γ-glutamyl transpeptidase; settings: proposed by Shikama et al.; cited from earlier work
cellular ischemia = settings: H Shikama et al., 1995; cited from earlier work
cells [5] = settings: cited from earlier work
cells [6] = settings: Puri and Meister, 1983; cited from earlier work
[7] = Meister et al., 1986; cited from earlier work
[8] = Meister et al., 1986; cited from earlier work; remark: listed apart in the source
[9] = B Olsson et al., 1988; cited from earlier work
ALS patients [10] = settings: cited from earlier work; for survival in ALS (in words): human, in vivo
[11] = test system: chronic organotypic spinal cord cultures; settings: in vitro, after SOD1 anti-sense oligonucleotides; cited from earlier work
5-oxoprolinase = settings: cited from earlier work
patients with ALS = assay: progression of ALS, phase II trial of OTZ and Riluzole versus Riluzole alone; assay type: in vivo, human; settings: 9 months, 3000 mg p.o. t.i.d.
Method: 5.3. OTZ in ALS Patients: Phase II Trial
A phase II, bi-center, double-blind randomized controlled comparison trial of the efficacy of OTZ and the anti-glutamate agent, Riluzole, versus Riluzole alone in slowing of disease progression in patients with ALS (50 at each center) is performed. Patients receive treatment for 9 months. Riluzole is approved for marketing by the FDA.
The OTZ and placebo capsules are identical in appearance. Riluzole is administered as tablets obtained from the manufacturer. Riluzole is administered at 50 mg bid to all subjects. The OTZ dose is the same as used in the Phase I study, 3000 mg p.o. t.i.d. However, the final determination of OTZ dose may be modified. Half the subjects receive active OTZ capsules and the other half receive identical appearing placebo capsules.
The primary outcome measure is change in motor and pulmonary function after 9 months of experimental therapy as tested with the Tufts Quantitative Neuromuscular Exam ([…]) and FVC. The secondary outcome measure is based upon ALS Functional Rating Scores.
Analysis is done on an intention to treat basis. The primary analysis tests the difference in average slopes of arm megascores between the OTZ and Riluzole combination and Riluzole alone groups using a two-way ANOVA with treatment and center in the model, with a two-sided alpha=0.05. […]

adverse experiences = assay type: in vivo, human; settings: only minor
Source text: The risk of any of these side effects occurring is small; however, should they occur, the dose of medication is reduced or discontinued entirely. However, OTZ is an experimental drug and unexpected side effects may occur.

[12] = OTZ pharmacokinetics (plasma elimination and oral absorption); assay type: in vivo, human
Method: The synthesis of glutathione, an endogenous antioxidant, is often limited by the supply of intracellular cysteine, one of the component amino acids of glutathione. […] Some of these patients continued taking OTZ capsules (up to 9 grams/day) for over two years.
Subjects with ALS were enrolled in a tolerability, pharmacokinetics and pharmacodynamics study of OTZ in ALS patients. In this study, glutathione and cysteine levels in whole blood and CSF and OTZ pharmacokinetics were determined in ten to twenty subjects with ALS. Blood was obtained for baseline glutathione and cysteine levels. A spinal catheter was inserted and baseline CSF samples collected for determination of glutathione and cysteine levels. OTZ (90 ml 5% OTZ injection=4500 mg OTZ) was administered by intravenous infusion through a peripheral vein over 60±10 minutes. At various time points after the start of the OTZ infusion, blood and CSF samples were drawn for determination of OTZ and glutathione levels. The following day, subjects started taking OTZ capsules (3000 mg t.i.d.) for 28 days. After 7 and 14 days of treatment with OTZ capsules, blood was drawn for analyses of safety parameters, glutathione, cysteine and OTZ levels. On the last day of the treatment period, blood and CSF samples were drawn for analysis of OTZ, glutathione, and cysteine levels. The study endpoints were tolerability, and pharmacokinetic and pharmacodynamic data. Safety was determined by clinical history and examination, quantitative neuromuscular examination and a panel of safety laboratory tests. Nine subjects completed the study and samples are analyzed. In addition, CSF was drawn from patients without severe neurological disorders and the GSH levels are analyzed and compared to the levels for ALS patients.

[13] = test system: intracellular glutathione levels; settings: cited from earlier work
GSH levels in rat brains = settings: cited from earlier work
[14] = test system: GSH levels in some cell types; settings: Williamson et al. 1981; cited from earlier work
[15] = in vivo; cited from earlier work
[16] = test system: transgenic mice which overexpress the mutant SOD1 protein; settings: small, but statistically significant; cited from earlier work
[17] = test system: glutamate release at pre-synaptic terminals; settings: cited from earlier work
ALS patients [18] = settings: two controlled studies; cited from earlier work

In the case of `CCOC(=O)CNC(=O)[C@H](CS)NC(=O)CC[C@H](N)C(=O)OCC` [GSH diethylester], the “stability in human blood” value [1] is given as “stable in human blood”, the “conversion to monoethyl (glycyl) ester in rodent blood plasma” value [2] is given as “readily converted to monoethyl (glycyl) ester in rodent blood plasma” and the “entry into human cells” value (human cells) is given as “even more efficiently transported into human cells than the monoester”. The “intracellular GSH levels in human cells” value (human cells) was “increase of intracellular GSH levels”.

For `CC(C)OC(=O)CNC(=O)[C@H](CS)NC(=O)CC[C@H](N)C(=O)O` [GSH isopropyl ester, glutathione isopropyl ester], the “rate of uptake into rat cerebrospinal fluid” value [3] is listed as “the same”, the “total GSH (sum of GSH and GSH ester) in rat CSF” value [3] is listed as “only the ester increased the total GSH” and the “stability in CSF” value ([3]; versus GSH) is listed as “more stable that GSH in the CSF”. For the same compound, the “affinity for γ-glutamyl transpeptidase” value [4] was “reduced affinity” and the “protection against cellular ischemia” value (cellular ischemia) was “provide protection against cellular ischemia”.

For `CCOC(=O)CNC(=O)[C@H](CS)NC(=O)CC[C@H](N)C(=O)O` [GSH monoethylester], the “entry into human cells” value (human cells) is given as “able to enter human cells” and the “intracellular GSH levels in human cells” value (human cells) is given as “increase in GSH levels”.

For `N[C@@H](CCC(=O)N[C@@H](CS)C(=O)NCC(=O)O)C(=O)O` [GSH, L-γ-glutamyl-L-cysteinylglycine], the “rate of uptake into rat cerebrospinal fluid” value [3] is listed as “the same”, the “effect of administration on intracellular GSH levels” value (cells [5]; Meister, U.S. Pat. No. 4,879,370) is listed as “has not led to increased intracellular GSH levels” and the transport into cells (cells [5]) is listed as “not transported efficiently into cells; also recorded: not efficiently transported into most animal cells”. For the same compound, the “protection of cells against toxic compounds” value (cells [6]) was “can protect some cells against toxic compounds”.

For `N[C@@H](CS)C(=O)O` [L-cysteine], the “oxidation at neutral pH” value [7] is given as “oxidized spontaneously at neutral pH”, the transport into cells (cells [5]) is given as “not transported efficiently into cells” and the transport into cells (cells [5]; listed as cysteine) is given as “not efficiently transported into most animal cells”. The “toxicity of high extracellular levels” value [8] was “high extracellular levels of cysteine can be toxic”.

For `CC(=O)N[C@@H](CS)C(=O)O` [N-acetylcysteine (NAC), N-acetylcysteine], the “bioavailability in human studies” value [9] is given as “low bioavailability”, the “survival in ALS (in words)” value (ALS patients [10]) is given as “trend towards increasing survival in ALS patients” and the “reversal of death process in spinal cord cultures” value [11] is given as “reversed”.

In the case of `O=C1N[C@H](C(=O)O)CS1` [OTZ, L-2-oxothiazolidine-4-carboxylic acid], the “conversion to cysteine (enzyme required)” value (5-oxoprolinase) is given as “requires the enzyme 5-oxoprolinase”, the “metabolism by 5-oxo-L-prolinase” value (5-oxoprolinase; in vitro, in the presence of adenosine triphosphate) is given as “subjected to the action of 5-oxo-L-prolinase in the presence of adenosine triphosphate to produce S-carboxyl cysteine” and the “rate of progression of ALS” value (patients with ALS) is given as “slows the rate of progression of ALS”. For the same compound, the “adverse experiences associated with OTZ” value (adverse experiences) was “stomach upset, dizziness, insomnia, nausea, restlessness and headache”, the elimination from plasma ([12]; after oral or intravenous administration) was “rapidly eliminated from plasma” and the “absorption after oral administration” value ([12]; oral) was “readily absorbed after oral administration”. The half-life ([12]; plasma, after oral or intravenous administration, read-out: T1/2 (elimination from plasma)) was 1 to 2 h, the “intracellular glutathione levels in animal models” value [13] was “increases intracellular glutathione levels in animal models” and the “GSH levels in rat brains” value (GSH levels in rat brains; Anderson and Meister 1989) was “no effect or only slightly increased GSH levels”. The “level of GSH in rat brains” value (GSH levels in rat brains; subcutaneous injections, Mesina et al. 1989) was “statistically significant increase in the level of GSH in rat brains” and the “increase of GSH levels in some cell types” value [14] was “effective in increasing GSH levels in some cell types”.

In the case of `Nc1nc2ccc(OC(F)(F)F)cc2s1` [Riluzole], the “known adverse experiences associated with Riluzole therapy” value [15] is listed as “asthenia, fatigue and asymptomatic elevation of liver function tests”, the “prolongation of survival in transgenic SOD1 mutant mice” value [16] is listed as 11% and the “prolongation of survival of ALS patients” value (ALS patients [10]; G Bensimon et al., 1994) is listed as 12%. The “survival in ALS (in words)” value (ALS patients [10]) was “extend survival in ALS; also recorded: improve survival in ALS; also recorded: small affect on survival”, the “prolongation of lifespan in patients with ALS” value (ALS patients [10]; two studies, statistically significant, but small, G Bensimon et al., 1994) was 18% and the “release of glutamates at pre-synaptic terminals” value [17] was “inhibits release of glutamates at pre-synaptic terminals”. The improvement in strength (ALS patients [18]) was “without a concomitant improvement in strength”.
